Assay results from patent EP2667887B1, “PHARMACEUTICAL COMPOSITION COMPRISING THE PEPTIDE GLU-ASP-GLY AND USE FOR TREATING HELICOBACTER PYLORI INDUCED GASTRODUODENAL DISEASES” («Garmonia», Ltd., priority 2011, dated 2012).

Assay: Chronic toxicity study, 6 months
Assay type: in vivo, male guinea pigs
Settings: guinea pigs
Text: General toxicity of peptide H-Glu-Asp-Gly-OH was studied in accordance with the requirements of "Manual for Experimental (Pre-Clinical) Study of New Pharmacological Substances" (2000): acute toxicity in case of a single administration of the preparation, as well as subacute and chronic toxicity in case of a long-term administration of the peptide.
Chronic toxicity was studied for 6 months basing on the duration of the recommended clinical administration of the preparation on 92 male guinea pigs with body weight 310-350 g. Experimental animals were treated with the peptide daily, once a day, intramuscularly for 6 months in the doses of 1 µg/kg, 0,1 mg/kg, 1 mg/kg in 0,5 ml of sterile 0,9% NaCl solution. Control animals received sterile 0,9% NaCl solution according to the same scheme and in the same volume. The following indices were identified in the peripheral blood of the animals using traditional methods: quantity of erythrocytes, hemoglobin, reticulocytes, thrombocytes, leukocytes, leukocyte formula, erythrocyte sedimentation rate (ESR), erythrocyte resistance. Further, total protein was identified in the blood serum by the Lowry method, as well as potassium and sodium using plasma spectrophotometry method. […]

glutamyl-aspartyl-glycine [H-Glu-Asp-Gly-OH]
chronic toxicity (intramuscularly daily for 6 months, 1 µg/kg, 0,1 mg/kg, 1 mg/kg, doses exceed the therapeutic one by 100-1000 times): no side effects | effect on the ESR, erythrocyte resistance and biochemical indices of the blood serum (long-term administration): No significant effect
